Activity calls are given as the source filed them. The calls are words filed in the database; no cut-off is given here.
Tests used:
[1] = biological target: T1, Tyrosine-protein kinase JAK3 (Homo sapiens, UniProt P52333); assay: Inhibition of recombinant human N-terminal His6-tagged JAK3 (781 to end residues) expressed in baculovirus infected Sf21 cells using STK as substrate by HTRF assay
T1 sequence (P52333 whole entry): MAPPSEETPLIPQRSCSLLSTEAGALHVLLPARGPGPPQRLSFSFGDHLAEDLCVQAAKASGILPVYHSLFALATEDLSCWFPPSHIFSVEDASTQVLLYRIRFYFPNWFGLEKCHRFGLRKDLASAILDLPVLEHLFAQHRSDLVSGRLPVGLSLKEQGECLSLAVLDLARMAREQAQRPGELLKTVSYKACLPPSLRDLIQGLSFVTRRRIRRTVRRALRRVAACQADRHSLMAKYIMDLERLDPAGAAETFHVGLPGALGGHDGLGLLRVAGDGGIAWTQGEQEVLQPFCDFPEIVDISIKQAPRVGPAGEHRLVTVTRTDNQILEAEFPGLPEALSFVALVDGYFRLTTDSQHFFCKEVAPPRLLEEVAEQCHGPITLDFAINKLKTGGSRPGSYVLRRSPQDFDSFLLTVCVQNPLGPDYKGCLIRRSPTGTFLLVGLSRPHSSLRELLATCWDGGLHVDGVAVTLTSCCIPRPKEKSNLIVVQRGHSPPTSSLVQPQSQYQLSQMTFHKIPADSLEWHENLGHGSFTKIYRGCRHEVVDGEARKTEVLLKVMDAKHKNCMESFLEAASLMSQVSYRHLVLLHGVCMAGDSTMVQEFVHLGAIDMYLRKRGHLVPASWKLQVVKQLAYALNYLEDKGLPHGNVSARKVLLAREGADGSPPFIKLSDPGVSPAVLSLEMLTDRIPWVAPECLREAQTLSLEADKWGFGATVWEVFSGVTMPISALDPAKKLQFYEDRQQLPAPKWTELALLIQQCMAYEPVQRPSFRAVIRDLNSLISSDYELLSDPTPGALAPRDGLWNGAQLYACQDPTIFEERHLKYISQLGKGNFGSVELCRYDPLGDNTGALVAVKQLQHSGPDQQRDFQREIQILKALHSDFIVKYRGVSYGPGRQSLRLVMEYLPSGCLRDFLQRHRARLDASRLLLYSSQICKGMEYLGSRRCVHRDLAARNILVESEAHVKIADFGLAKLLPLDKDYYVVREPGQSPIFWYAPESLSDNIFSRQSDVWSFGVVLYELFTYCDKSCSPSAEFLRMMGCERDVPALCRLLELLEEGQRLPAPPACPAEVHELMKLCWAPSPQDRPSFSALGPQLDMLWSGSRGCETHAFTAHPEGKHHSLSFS

[2] = biological target: T2, Tyrosine-protein kinase ITK/TSK (Homo sapiens, UniProt Q08881); assay: Inhibition of recombinant human N-terminal His6-tagged ITK (352 to 617 residues) expressed in baculovirus infected Sf21 insect cells using STK substrate by HTRF assay
T2 sequence (Q08881 whole entry): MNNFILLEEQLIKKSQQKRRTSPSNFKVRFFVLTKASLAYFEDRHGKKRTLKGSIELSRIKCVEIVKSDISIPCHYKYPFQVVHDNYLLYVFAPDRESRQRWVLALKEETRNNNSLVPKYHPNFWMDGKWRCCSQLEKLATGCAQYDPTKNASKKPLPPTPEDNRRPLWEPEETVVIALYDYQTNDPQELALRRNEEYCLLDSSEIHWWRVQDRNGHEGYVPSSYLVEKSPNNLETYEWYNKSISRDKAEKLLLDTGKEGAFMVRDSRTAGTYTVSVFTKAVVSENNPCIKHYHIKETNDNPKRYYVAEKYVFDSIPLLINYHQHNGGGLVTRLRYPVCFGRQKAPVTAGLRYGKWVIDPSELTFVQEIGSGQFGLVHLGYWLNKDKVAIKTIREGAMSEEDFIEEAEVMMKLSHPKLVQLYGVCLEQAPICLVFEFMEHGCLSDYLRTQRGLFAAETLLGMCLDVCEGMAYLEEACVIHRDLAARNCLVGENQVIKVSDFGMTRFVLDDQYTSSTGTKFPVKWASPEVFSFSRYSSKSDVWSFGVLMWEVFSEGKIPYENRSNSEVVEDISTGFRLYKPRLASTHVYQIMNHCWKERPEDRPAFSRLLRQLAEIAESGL

[3] = biological target: Tyrosine-protein kinase Blk (Homo sapiens, UniProt P51451); assay: Inhibition of BLK (unknown origin) using […] as substrate by HTRF assay
Tyrosine-protein kinase Blk, sequence (P51451 whole entry, the tested form may be a part): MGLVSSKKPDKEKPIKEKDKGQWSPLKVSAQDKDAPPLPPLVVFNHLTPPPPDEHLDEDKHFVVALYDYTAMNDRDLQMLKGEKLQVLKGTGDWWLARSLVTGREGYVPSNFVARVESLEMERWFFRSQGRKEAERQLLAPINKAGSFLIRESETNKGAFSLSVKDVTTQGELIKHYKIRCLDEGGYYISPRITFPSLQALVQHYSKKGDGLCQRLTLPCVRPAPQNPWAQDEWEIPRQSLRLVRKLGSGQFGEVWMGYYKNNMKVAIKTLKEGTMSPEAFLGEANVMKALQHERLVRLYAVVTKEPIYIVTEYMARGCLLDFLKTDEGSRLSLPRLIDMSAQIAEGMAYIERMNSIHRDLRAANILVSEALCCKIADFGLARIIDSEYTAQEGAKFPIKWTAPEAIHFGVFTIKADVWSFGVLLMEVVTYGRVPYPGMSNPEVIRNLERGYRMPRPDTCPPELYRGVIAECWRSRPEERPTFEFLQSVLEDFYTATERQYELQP

[4] = biological target: Epidermal growth factor receptor (Homo sapiens, UniProt P00533); assay: Inhibition of recombinant human N-terminal GST-tagged EGFR kinase domain (696 to end residues) expressed in baculovirus infected Sf21 insect cells using STK as substrate by HTRF assay
Epidermal growth factor receptor, sequence (P00533 whole entry, the tested form may be a part): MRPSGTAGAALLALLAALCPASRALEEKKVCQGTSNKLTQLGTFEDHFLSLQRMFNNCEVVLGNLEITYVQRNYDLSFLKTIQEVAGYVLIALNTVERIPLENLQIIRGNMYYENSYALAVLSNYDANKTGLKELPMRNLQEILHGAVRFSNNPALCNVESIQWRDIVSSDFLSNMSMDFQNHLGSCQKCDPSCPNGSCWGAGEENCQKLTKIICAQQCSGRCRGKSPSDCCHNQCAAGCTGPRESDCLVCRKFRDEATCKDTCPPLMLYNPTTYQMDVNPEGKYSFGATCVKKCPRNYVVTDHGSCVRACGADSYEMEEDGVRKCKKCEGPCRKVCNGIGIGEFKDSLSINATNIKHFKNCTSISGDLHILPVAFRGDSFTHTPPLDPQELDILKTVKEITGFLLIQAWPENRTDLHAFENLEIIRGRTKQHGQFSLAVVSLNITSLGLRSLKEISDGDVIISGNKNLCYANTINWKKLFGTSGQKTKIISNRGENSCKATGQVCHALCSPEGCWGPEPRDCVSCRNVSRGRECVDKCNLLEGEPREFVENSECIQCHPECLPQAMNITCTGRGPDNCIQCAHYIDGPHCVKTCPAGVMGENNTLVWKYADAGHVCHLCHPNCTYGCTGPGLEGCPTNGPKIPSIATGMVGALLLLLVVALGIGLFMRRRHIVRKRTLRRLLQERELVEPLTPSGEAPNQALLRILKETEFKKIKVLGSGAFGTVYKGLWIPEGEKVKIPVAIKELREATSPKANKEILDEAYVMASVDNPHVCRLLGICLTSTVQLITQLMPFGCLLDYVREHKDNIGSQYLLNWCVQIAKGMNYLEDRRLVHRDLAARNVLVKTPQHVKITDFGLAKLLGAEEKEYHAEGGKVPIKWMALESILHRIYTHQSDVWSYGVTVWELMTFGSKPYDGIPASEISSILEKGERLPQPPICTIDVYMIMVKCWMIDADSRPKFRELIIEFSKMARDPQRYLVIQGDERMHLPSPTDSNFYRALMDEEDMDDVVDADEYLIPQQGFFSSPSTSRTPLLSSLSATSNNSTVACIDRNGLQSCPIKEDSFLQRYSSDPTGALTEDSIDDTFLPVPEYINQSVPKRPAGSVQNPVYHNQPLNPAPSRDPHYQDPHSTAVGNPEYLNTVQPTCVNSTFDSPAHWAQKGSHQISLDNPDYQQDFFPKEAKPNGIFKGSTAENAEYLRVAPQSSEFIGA

[5] = biological target: Tyrosine-protein kinase BTK (Homo sapiens, UniProt Q06187); assay: Inhibition of recombinant human full-length N-terminal His6-tagged BTK expressed in baculovirus infected Sf21 insect cells using STK substrate by HTRF assay
Tyrosine-protein kinase BTK, sequence (Q06187 whole entry): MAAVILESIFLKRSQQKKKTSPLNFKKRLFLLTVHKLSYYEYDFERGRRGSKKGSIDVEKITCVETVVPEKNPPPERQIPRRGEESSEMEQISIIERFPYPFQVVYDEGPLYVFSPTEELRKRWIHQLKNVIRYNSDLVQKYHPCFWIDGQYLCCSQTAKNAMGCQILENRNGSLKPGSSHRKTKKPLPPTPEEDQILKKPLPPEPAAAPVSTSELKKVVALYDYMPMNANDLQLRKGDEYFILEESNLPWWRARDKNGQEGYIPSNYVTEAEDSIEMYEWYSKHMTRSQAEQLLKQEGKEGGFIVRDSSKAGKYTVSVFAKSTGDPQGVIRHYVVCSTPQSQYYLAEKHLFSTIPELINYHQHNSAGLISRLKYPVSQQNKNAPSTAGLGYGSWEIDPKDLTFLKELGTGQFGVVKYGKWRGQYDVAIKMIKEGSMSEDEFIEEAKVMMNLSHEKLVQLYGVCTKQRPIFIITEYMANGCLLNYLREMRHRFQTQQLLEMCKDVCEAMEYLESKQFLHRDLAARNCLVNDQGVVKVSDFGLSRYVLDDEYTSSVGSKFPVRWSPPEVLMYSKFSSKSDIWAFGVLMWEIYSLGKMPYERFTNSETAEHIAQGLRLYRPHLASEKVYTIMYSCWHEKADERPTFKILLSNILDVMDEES

[6] = biological target: T3, Tyrosine-protein kinase ITK/TSK (Homo sapiens) (UniProt Q08881); assay: Inhibition of human ITK at 1 uM using MAP as substrate in presence of [gamma33P]-ATP relative to control
T3 sequence (whole entry): T2 sequence (Q08881 whole entry)

[7] = biological target: T3, Tyrosine-protein kinase ITK/TSK (Homo sapiens); assay: Inhibition of recombinant human N-terminal His6-tagged ITK (352 to 617 residues) expressed in baculovirus infected Sf21 insect cells assessed as inactivation rate constant using STK substrate by HTRF assay
[8] = biological target: T3, Tyrosine-protein kinase ITK/TSK (Homo sapiens); assay: Inhibition of recombinant human N-terminal His6-tagged ITK (352 to 617 residues) expressed in baculovirus infected Sf21 insect cells assessed as ratio of Kinact to Ki using STK substrate by HTRF assay
[9] = biological target: T3, Tyrosine-protein kinase ITK/TSK (Homo sapiens); assay: Inhibition of ITK in human Jurkat cells assessed as reduction in anti-CD3/CD28-stimulated PLCgamma1 phosphorylation at 0.1 to 10000 nM preincubated for 2 hrs followed by anti-CD3/CD28 beads addition and measured after 30 min by Western blot analysis; type: cell-based
[10] = biological target: T3, Tyrosine-protein kinase ITK/TSK (Homo sapiens); assay: Covalent binding affinity to recombinant human ITK assessed as binding to Cys442 residue at 50 uM incubated for 24 hrs prior to trypsin addition for 4 hrs and boiled for 3 min followed by chymotrypsin addition and measured after overnight incubation by LC/MS/MS analysis
HEK-293T = assay: Growth inhibition of HEK293T cells incubated for 72 hrs by CellTiter-Glo luminescent cell viability assay; type: functional; details: Homo sapiens
CCRF-CEM = assay: Growth inhibition of human CCRF-CEM cells incubated for 72 hrs by CellTiter-Glo luminescent cell viability assay; type: functional
Jurkat = assay: Growth inhibition of human Jurkat cells incubated for 72 hrs by CellTiter-Glo luminescent cell viability assay; type: functional
MOLT-4 = assay: Growth inhibition of human MOLT4 cells incubated for 72 hrs by CellTiter-Glo luminescent cell viability assay; type: functional; details: MOLT-4, 72 h
H9 = assay: Growth inhibition of human H9 cells incubated for 72 hrs by CellTiter-Glo luminescent cell viability assay; type: functional; details: H9, 72 h
[11] = biological target: T2, Tyrosine-protein kinase ITK/TSK; assay: Inhibition of kinase tracer 236 binding to recombinant full length GST-tagged human ITK cytoplasmic domain expressed in baculovirus expression system incubated for 60 mins by Lanthascreen assay

Row | IC50 [1] [nM] | IC50 [2] [nM] | IC50 [4] [nM] | IC50 [5] [nM] | SMILES | also measured
1 | 0.6 | 0.5 | 2.3 | 3.9 | C=CC(=O)Nc1cccc(Oc2nc(Nc3ccc(N4CCOCC4)cc3)nc3[nH]cc(-c4ccncc4)c23)c1 | IC50 [3]: 0.7 nM
2 | 51 | 2.3 | 903 | 1480 | C=CC(=O)N1CCC(Oc2nc(Nc3ccc(N4CCN(C(C)=O)CC4)cc3)nc3[nH]cc(-c4cncc(NC)n4)c23)CC1 | –
3 | 1430 | 74 | > 3000 | > 10000 | C=CC(=O)N1CCC(Oc2nc(Nc3ccc(N4CCOCC4)cc3)nc3[nH]cc(-c4cccc(NC)n4)c23)CC1 | –
4 | 11 | < 1.26 | 138 | 35 | C=CC(=O)N1CCC[C@@H](Oc2nc(Nc3ccc(N4CCOCC4)cc3)nc3[nH]cc(-c4cncc(NC)n4)c23)C1 | K [7]: 0.31 min⁻¹; Ratio [8]: 891 ×10³ /M.s; inhibition [9]: Active; Ki [2]: 5.8 nM; Activity [10]: Active
5 | – | 375 | – | > 10000 | C=CC(=O)N1CCC[C@H](Oc2nc(Nc3ccc(N4CCN(C(C)=O)CC4)cc3)nc3[nH]cc(-c4cncc(NC)n4)c23)C1 | –
6 | – | 5.4 | – | 8 | C=CC(=O)Nc1cccc(Oc2nc(Nc3ccc(N4CCN(C(C)=O)CC4)cc3)nc3[nH]cc(-c4cncc(NC)n4)c23)c1 | –
7 | 186 | 7.1 | 937 | 1610 | CNc1cncc(-c2c[nH]c3nc(Nc4ccc(N5CCN(C(C)=O)CC5)cc4)nc(OC4CCOCC4)c23)n1 | –
8 | 3.7 | 7.8 | 1970 | 434 | C=CC(=O)N1CCC[C@H]1COc1nc(Nc2ccc(N3CCN(C(C)=O)CC3)cc2)nc2[nH]cc(-c3cncc(NC)n3)c12 | –
9 | 4.2 | < 1.26 | 38 | 36 | C=CC(=O)N1CCC(Oc2nc(Nc3ccc(N4CCOCC4)cc3)nc3[nH]cc(-c4ccnc(NC)c4)c23)CC1 | –

The next lines start with the compound.

Row | SMILES | IC50 [1] [nM] | IC50 [2] [nM] | IC50 [4] [nM] | IC50 [5] [nM] | also measured
10 | CNc1cncc(-c2c[nH]c3nc(Nc4ccc(N5CCN(C(C)=O)CC5)cc4)nc(OC4CCCCC4)c23)n1 | 104 | 5.1 | 654 | 1470 | –
11 | C=CC(=O)Nc1cccc(Oc2nc(Nc3ccc(N4CCN(C)CC4)c(F)c3)nc3[nH]ccc23)c1 | – | – | – | – | inhibition [6]: 80%
12 | C=CC(=O)N1CCC[C@@H](Oc2nc(Nc3ccc(N4CCN(C(C)=O)CC4)cc3)nc3[nH]cc(-c4cncc(NC)n4)c23)C1 | 24 | 3.7 | 499 | 270 | K [7]: 0.31 min⁻¹; Ratio [8]: 153 ×10³ /M.s; inhibition [9]: Active; Ki [2]: 33.7 nM
13 | C=CC(=O)N1CCC[C@@H](Oc2nc(Nc3ccc(N4CCN(CC)CC4)cc3)nc3[nH]cc(-c4cncc(NC)n4)c23)C1 | 1.2 | 1.3 | 8.7 | 26 | –
14 | C=CC(=O)N1CCC(Oc2nc(Nc3ccc(N4CCOCC4)cc3)nc3[nH]cc(-c4cncc(NC)c4)c23)CC1 | 84 | 3.6 | > 3000 | 942 | GI50 (HEK-293T): 270 nM; GI50 (CCRF-CEM): 48 nM; GI50 (Jurkat): 188 nM; GI50 (MOLT-4): 109 nM; GI50 (H9): 190 nM
15 | Nc1ccc(-c2c[nH]c3nc(Nc4ccc(N5CCOCC5)cc4)nc(Oc4ccccc4)c23)cc1 | – | – | – | – | IC50 [11]: > 10000 nM
16 | COc1ccc(-c2c[nH]c3nc(Nc4ccc(N5CCOCC5)cc4)nc(Oc4ccccc4)c23)cc1 | – | – | – | – | IC50 [11]: > 10000 nM
17 | CNc1cncc(-c2c[nH]c3nc(Nc4ccc(N5CCN(C(C)=O)CC5)cc4)nc(Oc4ccccc4)c23)n1 | 470 | 5.4 to 19 | 1050 | 1460 | –
18 | C#CCCN1CCN(c2ccc(Nc3nc(OC4CCN(C(=O)C=C)CC4)c4c(-c5cncc(NC)n5)c[nH]c4n3)cc2)CC1 | 61 | 55 | > 3000 | > 3000 | –
19 | C=CC(=O)N1CCC[C@@H]1COc1nc(Nc2ccc(N3CCN(C(C)=O)CC3)cc2)nc2[nH]cc(-c3cncc(NC)n3)c12 | 69 | 2.2 | 150 | 286 | –

— ChEMBL document CHEMBL4346710, “Discovery of 7H-pyrrolo[2,3-d]pyrimidine derivatives as selective covalent irreversible inhibitors of interleukin-2-inducible T-cell kinase (Itk)” (Eur J Med Chem, 2019)
